# Results reported in ChEMBL document CHEMBL1151101, “Irritant principles of the mezereon family (Thymelaeaceae), V. New skin irritants and tumor promoters of the daphnane and 1 alpha-alkyldaphnane type from Synaptolepis kirkii and Synaptolepis retusa” (J Nat Prod, 1988).
# Key:
# Mus musculus [1] = species: Mus musculus; assay: Skin irritant activity in NMRI mouse ear assessed as irritancy after 24 hrs; type: ADME, organism-based; conditions: in vivo
# Mus musculus [2] = species: Mus musculus; assay: Skin irritant activity in NMRI mouse ear assessed as irritant dose 50 per ear after 24 hrs; type: ADME, organism-based; conditions: in vivo
# Mus musculus [3] = species: Mus musculus; assay: Tumor promoting activity of DMBA-initiated tumor in back skin of NMRI mouse assessed as tumor rate at 20 nmol twice weekly measured after 24 weeks; type: organism-based, Zone of skin; conditions: in vivo, 4032 h
# Mus musculus [4] = species: Mus musculus; assay: Tumor promoting activity of DMBA-initiated tumor in back skin of NMRI mouse assessed as average tumor yeild at 20 nmol twice weekly measured after 24 weeks; type: organism-based, Zone of skin; conditions: in vivo, 4032 h
# Mus musculus [5] = species: Mus musculus; assay: Tumor promoting activity of DMBA-initiated tumor in back skin of NMRI mouse assessed as tumor rate at 20 nmol twice weekly measured after 12 weeks; type: organism-based, Zone of skin; conditions: in vivo, 2016 h
# [6] = Tumor promoting activity of DMBA-initiated tumor in back skin of NMRI mouse assessed as survival rate at 20 nmol twice weekly measured after 24 weeks; type: organism-based, Zone of skin; conditions: in vivo, topical or ocular
# Mus musculus [7] = species: Mus musculus; assay: Tumor promoting activity of DMBA-initiated tumor in back skin of NMRI mouse assessed as average tumor yeild at 20 nmol twice weekly measured after 12 weeks; type: organism-based, Zone of skin; conditions: in vivo, 2016 h
# Mus musculus [8] = species: Mus musculus; assay: Tumor promoting activity of DMBA-initiated tumor in back skin of NMRI mouse assessed as average tumor yeild at 2.5 nmol twice weekly measured after 12 weeks; type: ADME, organism-based, Zone of skin; conditions: in vivo, 2016 h
# [9] = Tumor promoting activity of DMBA-initiated tumor in back skin of NMRI mouse assessed as survival rate at 5 nmol twice weekly measured after 24 weeks; type: organism-based, Zone of skin; conditions: in vivo, topical or ocular
# Mus musculus [10] = species: Mus musculus; assay: Tumor promoting activity of DMBA-initiated tumor in back skin of NMRI mouse assessed as average tumor yeild at 5 nmol twice weekly measured after 12 weeks; type: organism-based, Zone of skin; conditions: in vivo, 2016 h
# Mus musculus [11] = species: Mus musculus; assay: Tumor promoting activity of DMBA-initiated tumor in back skin of NMRI mouse assessed as average tumor yeild at 2.5 nmol twice weekly measured after 24 weeks; type: ADME, organism-based, Zone of skin; conditions: in vivo, 4032 h
# Mus musculus [12] = species: Mus musculus; assay: Tumor promoting activity of DMBA-initiated tumor in back skin of NMRI mouse assessed as tumor rate at 5 nmol twice weekly measured after 24 weeks; type: organism-based, Zone of skin; conditions: in vivo, 4032 h
# [13] = Tumor promoting activity of DMBA-initiated tumor in back skin of NMRI mouse assessed as survival rate at 2.5 nmol twice weekly measured after 24 weeks; type: organism-based, Zone of skin; conditions: in vivo, topical or ocular
# Mus musculus [14] = species: Mus musculus; assay: Tumor promoting activity of DMBA-initiated tumor in back skin of NMRI mouse assessed as tumor rate at 2.5 nmol twice weekly measured after 12 weeks; type: organism-based, Zone of skin; conditions: in vivo, 2016 h
# Mus musculus [15] = species: Mus musculus; assay: Tumor promoting activity of DMBA-initiated tumor in back skin of NMRI mouse assessed as tumor rate at 2.5 nmol twice weekly measured after 24 weeks; type: organism-based, Zone of skin; conditions: in vivo, 4032 h
# Mus musculus [16] = species: Mus musculus; assay: Tumor promoting activity of DMBA-initiated tumor in back skin of NMRI mouse assessed as tumor rate at 5 nmol twice weekly measured after 12 weeks; type: organism-based, Zone of skin; conditions: in vivo, 2016 h
# Mus musculus [17] = species: Mus musculus; assay: Tumor promoting activity of DMBA-initiated tumor in back skin of NMRI mouse assessed as average tumor yeild at 5 nmol twice weekly measured after 24 weeks; type: organism-based, Zone of skin; conditions: in vivo, 4032 h
# [18] = Tumor promoting activity of DMBA-initiated tumor in back skin of NMRI mouse assessed as survival rate at 10 nmol twice weekly measured after 24 weeks; type: organism-based, Zone of skin; conditions: in vivo, topical or ocular
# Mus musculus [19] = species: Mus musculus; assay: Tumor promoting activity of DMBA-initiated tumor in back skin of NMRI mouse assessed as tumor rate at 10 nmol twice weekly measured after 12 weeks; type: organism-based, Zone of skin; conditions: in vivo, 2016 h
# Mus musculus [20] = species: Mus musculus; assay: Tumor promoting activity of DMBA-initiated tumor in back skin of NMRI mouse assessed as average tumor yeild at 10 nmol twice weekly measured after 12 weeks; type: organism-based, Zone of skin; conditions: in vivo, 2016 h
# Mus musculus [21] = species: Mus musculus; assay: Tumor promoting activity of DMBA-initiated tumor in back skin of NMRI mouse assessed as tumor rate at 10 nmol twice weekly measured after 24 weeks; type: organism-based, Zone of skin; conditions: in vivo, 4032 h
# Mus musculus [22] = species: Mus musculus; assay: Tumor promoting activity of DMBA-initiated tumor in back skin of NMRI mouse assessed as average tumor yeild at 10 nmol twice weekly measured after 24 weeks; type: organism-based, Zone of skin; conditions: in vivo, 4032 h
smiles,measurement,setting,value
C=C(C)[C@]12C[C@@H](C)[C@@]34O[C@](/C=C\C=C\CCCCCCCCCC)(O[C@@H]1[C@@H]3[C@@H]1O[C@]1(CO)[C@@H](O)[C@]1(O)C(=O)C(C)=C[C@H]14)O2,Activity,Mus musculus [1],50 nmol⁻¹
same,Activity,Mus musculus [2],0.02 nmol
C=C(C)[C@]12O[C@@]3(/C=C/C=C/C=C\CCC)O[C@@H]1[C@@H]1[C@@H]4O[C@]4(CO)[C@@H](O)[C@]4(O)C(=O)C(C)=C[C@H]4[C@@]1(O3)[C@H](C)[C@H]2OC(C)=O,Activity,Mus musculus [3],0%
same,Activity,Mus musculus [4],0
same,Activity,Mus musculus [1],0.91 nmol⁻¹
same,Activity,Mus musculus [5],0%
same,survival at 4032 h,[6],100%
same,Activity,Mus musculus [7],0
same,Activity,Mus musculus [2],1.1 nmol
C=C(C)[C@@]1(O)C[C@@H](C)[C@@]2(O)[C@H]([C@H]1OC(=O)/C=C/CCCCCCCCCCCCC)[C@@H]1O[C@]1(COC(=O)CCCCCCCCCCCCCCC)[C@@H](O)[C@]1(O)C(=O)C(C)=C[C@H]12,Activity,Mus musculus [1],0.15 nmol⁻¹
same,Activity,Mus musculus [2],20 nmol
C=C(C)[C@@]1(OC(=O)/C=C/CCCCCCCCCCCCC)C[C@@H](C)[C@@]2(O)[C@H]([C@H]1O)[C@@H]1O[C@]1(CO)[C@@H](O)[C@]1(O)C(=O)C(C)=C[C@H]12,Activity,Mus musculus [1],13 nmol⁻¹
same,Activity,Mus musculus [2],0.08 nmol
C=C(C)[C@]12C[C@@H](C)[C@@]34O[C@](/C=C\C=C\CCCCC)(O[C@@H]1[C@@H]3[C@@H]1O[C@]1(CO)[C@@H](O)[C@]1(O)C(=O)C(C)=C[C@H]14)O2,Activity,Mus musculus [1],6.7 nmol⁻¹
same,Activity,Mus musculus [2],0.15 nmol
C=C(C)[C@]12O[C@@]34/C=C/CCCCCCCCCCC[C@H](C)[C@H]5[C@H](C)C(=O)[C@@]6(O)[C@H](O)[C@@]7(CO)O[C@H]7[C@@H]([C@H]1O3)[C@](O4)([C@H](C)[C@H]2OC(C)=O)[C@H]56,Activity,Mus musculus [8],0
same,Activity,Mus musculus [1],100 nmol⁻¹
same,survival at 4032 h,[9],99%
same,Activity,Mus musculus [10],0.33
same,Activity,Mus musculus [11],0.6
same,Activity,Mus musculus [12],100%
same,survival at 4032 h,[13],94%
same,Activity,Mus musculus [14],0%
same,Activity,Mus musculus [15],27%
same,Activity,Mus musculus [16],33%
same,Activity,Mus musculus [2],0.01 nmol
same,Activity,Mus musculus [17],4.4
C=C(C)[C@@]1(O)C[C@@H](C)[C@@]2(O)[C@H]([C@H]1OC(=O)/C=C/CCCCCCCCCCCCC)[C@@H]1O[C@]1(CO)[C@@H](O)[C@]1(O)C(=O)C(C)=C[C@H]12,Activity,Mus musculus [1],29 nmol⁻¹
same,Activity,Mus musculus [2],0.035 nmol
C=C(C)[C@]12C[C@@H](C)[C@@]34O[C@](/C=C/CCCCCCCCCCCCC)(O[C@@H]1[C@@H]3[C@@H]1O[C@]1(COC(=O)CCCCCCCCCCCCCCC)[C@@H](O)[C@]1(O)C(=O)C(C)=C[C@H]14)O2,Activity,Mus musculus [1],6.3 nmol⁻¹
same,Activity,Mus musculus [2],0.16 nmol
C=C(C)[C@]12O[C@@]3(/C=C/C=C/CCCCCCCCC)O[C@@H]1[C@@H]1[C@@H]4O[C@]4(CO)[C@@H](O)[C@]4(O)C(=O)C(C)=C[C@H]4[C@@]1(O3)[C@H](C)[C@H]2OC(C)=O,Activity,Mus musculus [1],33 nmol⁻¹
same,Activity,Mus musculus [2],0.03 nmol
C=C(C)[C@]12C[C@@H](C)[C@@]34O[C@](/C=C/CCCCCCCCCCCCC)(O[C@@H]1[C@@H]3[C@@H]1O[C@]1(CO)[C@@H](O)[C@]1(O)C(=O)C(C)=C[C@H]14)O2,Activity,Mus musculus [1],50 nmol⁻¹
same,survival at 4032 h,[9],100%
same,survival at 4032 h,[18],94%
same,Activity,Mus musculus [10],0.13
same,Activity,Mus musculus [12],69%
same,Activity,Mus musculus [19],94%
same,Activity,Mus musculus [20],4.7
same,Activity,Mus musculus [16],6%
same,Activity,Mus musculus [21],100%
same,Activity,Mus musculus [2],0.02 nmol
same,Activity,Mus musculus [22],9.7
same,Activity,Mus musculus [17],2.9
C=C(C)[C@]12C[C@@H](C)[C@@]34O[C@](CCCCCCCCCCCCCCC)(O[C@@H]1[C@@H]3[C@@H]1O[C@]1(CO)[C@@H](O)[C@]1(O)C(=O)C(C)=C[C@H]14)O2,Activity,Mus musculus [1],25 nmol⁻¹
same,Activity,Mus musculus [2],0.04 nmol
C=C(C)[C@]12O[C@@]3(/C=C/C=C/CCCCC)O[C@@H]1[C@@H]1[C@@H]4O[C@]4(CO)[C@@H](O)[C@]4(O)C(=O)C(C)=C[C@H]4[C@@]1(O3)[C@H](C)[C@H]2O,Activity,Mus musculus [1],1.1 nmol⁻¹
same,Activity,Mus musculus [2],0.92 nmol
C=C(C)[C@@]12C[C@@H](C)[C@@]34O[C@@]5(/C=C/CCCCCCCCCCCC(C)[C@H]6[C@H](C)C(=O)[C@@](O)([C@H](O)[C@@]7(COC(=O)CCCCCCCCCCCCCCC)O[C@H]7[C@H]3[C@H]1O5)[C@@H]64)O2 (stereo partly specified),Activity,Mus musculus [1],53 nmol⁻¹
same,Activity,Mus musculus [2],0.019 nmol
C=C(C)[C@]12O[C@@]3(/C=C/C=C/CCCCC)O[C@@H]1[C@@H]1[C@@H]4O[C@]4(CO)[C@@H](O)[C@]4(O)C(=O)C(C)=C[C@H]4[C@@]1(O3)[C@H](C)[C@H]2OC(C)=O,Activity,Mus musculus [3],14%
same,Activity,Mus musculus [4],0.36
same,Activity,Mus musculus [1],3.7 nmol⁻¹
same,Activity,Mus musculus [5],0%
same,survival at 4032 h,[6],88%
same,Activity,Mus musculus [7],0
same,Activity,Mus musculus [2],0.27 nmol
C=C(C)[C@]12O[C@@]3(/C=C/C=C/C=C\CCC)O[C@@H]1[C@@H]1[C@@H]4O[C@]4(CO)[C@@H](O)[C@]4(O)C(=O)C(C)=C[C@H]4[C@@]1(O3)[C@H](C)[C@H]2O,Activity,Mus musculus [1],1.2 nmol⁻¹
same,Activity,Mus musculus [2],0.81 nmol
C=C(C)[C@]12O[C@@]34/C=C/CCCCCCCCCCCC(C)[C@H]5[C@H](C)C(=O)[C@@]6(O)[C@H](O)[C@@]7(CO)O[C@H]7[C@@H]([C@H]1O3)[C@](O4)([C@H](C)[C@H]2O)[C@H]56 (stereo partly specified),Activity,Mus musculus [8],0.33
same,Activity,Mus musculus [1],667 nmol⁻¹
same,survival at 4032 h,[9],94%
same,Activity,Mus musculus [10],1.3
same,Activity,Mus musculus [11],2.9
same,Activity,Mus musculus [12],86%
same,survival at 4032 h,[13],100%
same,Activity,Mus musculus [14],6.7%
same,Activity,Mus musculus [15],87%
same,Activity,Mus musculus [16],60%
same,Activity,Mus musculus [2],0.0015 nmol
same,Activity,Mus musculus [17],2.7
C=C(C)[C@@]12C[C@@H](C)[C@@]34O[C@@]5(/C=C/CCCCCCCCCCCC(C)(O)[C@H]6[C@H](C)C(=O)[C@@](O)([C@H](O)[C@@]7(CO)O[C@H]7[C@H]3[C@H]1O5)[C@@H]64)O2 (stereo partly specified),Activity,Mus musculus [1],6 nmol⁻¹
same,Activity,Mus musculus [2],0.016 nmol
C=C(C)[C@]12C[C@@H](C)[C@@]34O[C@](CCCCCCCCC)(O[C@@H]1[C@@H]3[C@@H]1O[C@]1(CO)[C@@H](O)[C@]1(O)C(=O)C(C)=C[C@H]14)O2 [SIMPLEXIN],Activity,Mus musculus [3],71%
same,Activity,Mus musculus [4],3
same,Activity,Mus musculus [1],77 nmol⁻¹
same,Activity,Mus musculus [5],20%
same,survival at 4032 h,[18],93%
same,survival at 4032 h,[6],100%
same,Activity,Mus musculus [19],4%
same,Activity,Mus musculus [20],0.2
same,Activity,Mus musculus [21],54%
same,Activity,Mus musculus [7],0.6
same,Activity,Mus musculus [2],0.013 nmol
same,Activity,Mus musculus [22],1.7
